Values joined by “and” are separate entries in the source; they are usually repeats but may differ in a detail not shown here. Identical values can stand only once.
Assays:
mpkCCD cells = assay: Forskolin-induced cAMP production in mpkCCD cells; assay type: cell-based, mouse
Method: 152 Supplementary Methods
154 We quantified cAMP production with the cAMP dynamic 2 assay kit (Cisbio Bioassays,
155 Codolet, France), which is based on homogeneous time-resolved fluorescence (HTRF)
156 technology, as previously described 1. For cells expressing the Apelin-R, 2000 CHO cells/well
157 stably expressing rat apelinR-EGFP (clone B70) were added to the 384-well plate and
158 stimulated with 5 µmol/l forskolin (FSK) and various concentrations (0.01 pmol/l to 100
For cells expressing the V2-R, HEK-
160 293T cells were transiently transfected with the human V2-R (cDNA Resource Center), after
161 48h, 4000 cells/well were added to white 384-well optiplates and stimulated either with 5
Cells were then lysed, and
165 cAMP levels were determined in accordance with the kit manufacturer’s instructions.
166 Stimulation was performed in stimulation buffer-IBMX (SBI) (Hank’s balanced salt solution
167 (HBSS-Life Technology), 5 mmol/l Hepes, 0.1% BSA stabilizer (Perkin Elmer), 1 mmol/l
168 isobutylmethylxanthine (IBMX, Sigma Aldrich, pH 7.4)). For cAMP assay with mpkCCD
169 cells, the cells were grown on 12 mm Transwell filters (0.4 μm pore size, Corning Costar,
170 Cambridge, MA) until they reach confluency (4-5 days). For forskolin experiments, culture
171 media was replaced with SBI in apical and basolateral compartments. After 30 min of […]

anti-K17F serum = assay: Inhibition of [125I]-pE13F binding to anti-K17F serum (apelin RIA, cross-reactivity); set-up: species or system rabbit; settings: read-out: IC50, recognition by antibody directed against K17F, antiserum 1/4500
Method: The columns were then treated as described in
Samples (0.1ml) w ere mixed with 125I-
(§1) 212 used this radioligand instead of [Glp65, Nle75, Tyr77] [125I]-apelin13 since the substitution of
(§2) 214 derivatives as described previously by 3,4.
216 incubated for 10 min at room temperature.
This antiserum identified the apelin present in the
Most of the apelin in human plasma was […]

in vivo [1] = settings: for Apelin (plasma apelin-immunoreactive level): single animals
Method: (§3) 187 Apelin radioimmunoassay
(§4) 188 Plasma samples (0.5 ml) were acidified with 0.175 ml of 3 mol/l HCl and stored at -80°C
(§5) 189 until use for apelin RIA. Before thawing the sample on ice, 0.05% BSA was added, and the
(§6) 190 samples were centrifuged at 20000 x g at 4°C for 10 min. The supernatants were collected and
(§7) 191 the pH was adjusted to 6.5 with 10 mol/l NaOH and 2 mol/l Tris-HCl buffer (pH 7.4). Apelin
(§8) 192 was extracted from plasma by mixing the supernatant with 0.3 ml of 0.1% BSA in H2O and 1
(§9) 193 ml of 1% trifluoroacetic acid (TFA) - 0.1% BSA, and running the mixture on a Sep-Pak C18
(§10) 194 cartridge (Waters) previously washed with 2 ml 100% acetonitrile and equilibrated with 5 ml
(§11) 195 1% TFA - 0.1% BSA. The columns then were washed with 3 ml 1% TFA - 0.1% BSA and
(§12) 196 apelin was eluted with 1.5 ml 100% acetonitrile. […]
(§13) 208 Plasma or brain apelin levels w ere deter mined by RIA. Samples (0.1ml) w ere mixed with 125I-
(§14) 211 dilution: 1/4500) to give a total volume of 0.2 ml and were incubated at 4°C overnight. We
as §1, §2
(§15) 215 We then added 0.5 ml of Amerlex (Amersham RPN 510), and the resulting mixture was
(§16) 216 incubated for 10 min at room temperature. The tubes were centrifuged at 2600 x g at 4°C for
217 20 min. The supernatant was removed and the radioactivity of the precipitates was measured.
218 We assessed the cross-reactivity of the apelin antiserum with various N- and C-terminally
232 according to the following equation: [plasma apelin] tx = [plasma apelin] t0 * e(-kt) , where k is
233 the elimination rate constant. […]

in vivo [2] = settings: mice, 30 min after s.c. 900 nmol/kg
Method: as §3, §4, §5, §6, §7, §8, §9, §10, §11, §12, §13, §14, §1, §2, §15, §16
217 20 min. The supernatant was removed and the radioactivity of the precipitates was measured. […]

[3] = tested on: control Sprague-Dawley rats; assay: Effects of i.v. administration on urine output, urine osmolality and water intake in normonatremic rats; assay type: in vivo, rat
Method: Male Swiss mice (25–30 g, 4–6 weeks) and male Sprague–Dawley rats (210–230 g, 6–8 weeks) were obtained from Charles River Laboratories (L’Arbresle, France). While housed in our animal facility, they were given free access to normal chow and water, and they were maintained under 12-h light/dark cycles throughout the study. Temperature was maintained between 18 and 22 °C, and humidity between 40 and 60%. When required for i.v. administration, a right femoral venous catheter was implanted in the rats, by tunneling under the skin, under isoflurane anesthesia (4% for induction, 2% for maintenance). Meloxicam (Metacam) was administered postoperatively (1 mg/kg s.c.) for analgesia.

[4] = tested on: normonatremic Sprague-Dawley rats; assay: Effects of s.c. administration on metabolic parameters in normonatremic rats; assay type: in vivo, rat
mice = assay: Left ventricular ejection fraction by echocardiography in mice; assay type: in vivo, mouse
Method: LVEF was determined in mice under isoflurane anesthesia at baseline and 3 h after s.c. administration of the compound, as previously described.

[5] = tested on: hyponatremic rats (AVP 30 ng/h); assay: Effects of LIT01-196 and tolvaptan in rat model of AVP-induced hyponatremia; assay type: in vivo
Method: Meloxicam was administered postoperatively for analgesia. Animals were then individually housed in metabolic cages (Techniplast), and given a semi-liquid diet consisting of 25 ml Gel-Diet Breeding-10 (SAFE, Augy, France) mixed with 25 ml tap water per day, with water available ad libitum. Animal weight, water, and food consumption were measured daily. Urine was collected daily, urinary electrolytes (Na^+, K^+, Cl^−) were determined with an ISE 3000 (Caretium Medical Instruments, Shenzhen, China) and urinary osmolality was measured with a Cryobasic 1 osmometer (Astori Tecnica, Poncarale, Italy). Blood samples were collected on ice, before implantation of the osmotic minipump, and before drug administration, under isoflurane anesthesia, from the tail vein (4 µl of lithium heparinate (1600 IU/ml) for 400 µl of blood). The blood samples were immediately centrifuged (4 °C, 2600 × g, 20 min), and plasma electrolyte (Na^+, K^+, Cl^−) levels were quantified with an ISE 3000. On the last day of the experiment, blood was also collected on ice by intracardiac puncture. This blood sample was collected into lithium heparinate under isoflurane anesthesia; plasma electrolyte levels were determined as described above and the animals were immediately killed by carbon monoxide inhalation.

[6] = 15 nmol/kg i.v., control rats, 24 h, n = 6
[7] = 900 nmol/kg SC (tolvaptan 0.4.SC [sic]), normonatremic rats, single animals

CSCC[C@H](NC(=O)[C@@H]1CCCN1C(=O)CNC(=O)[C@H](CCCCN)NC(=O)[C@H](Cc1c[nH]cn1)NC(=O)[C@H](CO)NC(=O)[C@H](CC(C)C)NC(=O)[C@H](CCCNC(=N)N)NC(=O)[C@@H]1CCCN1C(=O)[C@H](CCCNC(=N)N)NC(=O)[C@H](CCC(N)=O)NC(=O)[C@H](CCCNC(=N)N)NC(=O)[C@H](CCCNC(=N)N)NC(=O)[C@H](Cc1ccccc1)NC(=O)[C@H](CCCCN)NC(=O)CCC(F)(F)C(F)(F)C(F)(F)C(F)(F)C(F)(F)C(F)(F)C(F)(F)C(F)(F)F)C(=O)N1CCC[C@H]1C(=O)N[C@@H](Cc1ccccc1)C(=O)O [LIT01-196]
inhibition of cAMP production induced by forskolin (mpkCCD cells; 1 µmol/l compound, forskolin 1 µmol/l, mpkCCD cells, 30 min 37 °C): 32%
Forskolin-induced cAMP production, value (Fig 2C) (mpkCCD cells; Forskolin + peptide, single measurements): 89
IC50 (anti-K17F serum): 0.56 ± 0.04 nM
plasma apelin levels (in vivo [1]; Sprague-Dawley rats, 30 min after s.c. 900 nmol/kg, basal 0.36 ± 0.05, n = 5): 1.3 ± 0.22 pmol/mL
in vivo half-life in the blood circulation, i.v. (in vivo [1]; alert rats, 15 nmol/kg i.v., RIA): 28 min
in vivo half-life in the blood circulation, s.c. (in vivo [1]; alert rats, 900 nmol/kg s.c., RIA): 156 min
Apelin (plasma apelin-immunoreactive level) (in vivo [1]; rats, 15 nmol/kg IV, time 5 min): 3.535 and 7.0448
Apelin (plasma apelin-immunoreactive level) (in vivo [1]; rats, 15 nmol/kg IV, time 7.5 min): 6.127 and 4.75 and 3.783
Apelin (plasma apelin-immunoreactive level) (in vivo [1]; rats, 15 nmol/kg IV, time 10 min): 3.32 and 4.264
Apelin (plasma apelin-immunoreactive level) (in vivo [1]; rats, 15 nmol/kg IV, time 15 min): 3.56 and 2.876 and 2.207
Apelin (plasma apelin-immunoreactive level) (in vivo [1]; rats, 15 nmol/kg IV, time 60 min): 1.212 and 1.2225
Apelin (plasma apelin-immunoreactive level) (in vivo [1]; rats, 900 nmol/kg SC, time 60 min): 3.999 and 3.58
Apelin (plasma apelin-immunoreactive level) (in vivo [1]; rats, 900 nmol/kg SC, time 120 min): 2.002 and 1.919 and 1.949
Apelin (plasma apelin-immunoreactive level) (in vivo [1]; rats, 900 nmol/kg SC, time 270 min): 1.1931 and 0.8899 and 1.066
Apelin (plasma apelin-immunoreactive level) (in vivo [1]; rats, 900 nmol/kg SC, time 360 min): 1.029 and 0.9091 and 0.7789
Apelin (plasma apelin-immunoreactive level) (in vivo [1]; rats, 900 nmol/kg SC, time 1440 min): 0.4742 and 0.5151 and 0.6469
plasma apelin levels, times higher than basal levels (in vivo [1]; rats, 30 min after s.c. 900 nmol/kg): 3.6 times
plasma apelin-IR levels, times basal levels (in vivo [2]): 9.7 times
plasma apelin-IR levels (in vivo [2]; basal 1.3 ± 0.073, n = 5): 12.4 ± 2.5 pmol/mL
decrease in urine osmolality relative to saline [3, 6]: 38%
increase in urine output relative to saline [3, 6]: 95%
water intake ([3]; i.v., K17F 400 nmol/kg, LIT01-196 15 nmol/kg, 24 hours): did not induce a significant change
Urine osmolality (3 hours) [4, 7]: 1384 and 748 and 940 and 740 and 756 and 732
Urine osmolality (6 hours) [4, 7]: 356 and 1028 and 440 and 1112 and 752 and 680
Urine osmolality (24 hours) [4, 7]: 1095 and 2308 and 2437 and 1605 and 969 and 1304 and 1184 and 540 and 808 and 632 and 904 and 972 and 1020 and 1112 and 960 and 572 and 760 and 772 and 928 and 708 and 1220 and 1508
body weight change (weight loss) ([4]; 900 nmol/kg s.c., 24 h): −1.8%
increase in water intake ([4]; 900 nmol/kg s.c., 24 h): 11%
increase in water intake to food intake ratio ([4]; 900 nmol/kg s.c., 24 h): 50%
increase in free water excretion fraction ([4]; 900 nmol/kg s.c., 24 h, n = 6): 86%
decrease in food (normal chow) intake ([4]; 900 nmol/kg s.c., 24 h, non-significant): 20%
increase in 24-h urine output relative to saline ([4]; 900 nmol/kg s.c., normonatremic rats): 79%
decrease in urine osmolality ([4]; 900 nmol/kg s.c., normonatremic rats, 24 h): 52%
Water excretion fraction ([4]; LIT01-196 900 nmol/kg SC, individual animals (Fig. S4C source data)): 0.8192 and 1.335 and 0.9524 and 0.95 and 0.8692 and 1.016
Sodium excretion fraction ([4]; LIT01-196 900 nmol/kg SC, individual animals (Fig. S4D source data)): 0.6321 and 0.5196 and 0.512 and 0.526 and 0.4023 and 0.292
Sodium excretion fraction ([4]; LIT01-196 900 nmol/kg, tolvaptan 6700 nmol/kg s.c., 24 h): not changed
Water to food ratio ([4]; normonatremic rats, 900 nmol/kg SC, individual animal values (source data Fig. 4L)): 1.9011 and 2.746 and 2.674 and 1.755 and 1.9235 and 1.556 and 1.545
FEVG.TM. 3 hours (mice; 1200 nmol/kg SC, 3 hours, individual animals (Fig. S5B source data)): 55.1558 and 58.4253 and 55.5031 and 58.4836 and 58.0536
FEVG.TM. Baseline (mice; 1200 nmol/kg SC, baseline, individual animals (Fig. S5B source data)): 49.7762 and 61.2453 and 58.1457 and 44.7681 and 49.1413
LVEF 3 h after administration (mice; 1200 nmol/kg s.c., mice, n = 5, 52.6 ± 3.0 before administration, p = 0.31): 57.1 ± 0.7%
increase in urine output 24 h after s.c. administration ([5]; 180 nmol/kg s.c., rats receiving 30 ng/h AVP): 1.5 ± 2.0 ml/24 h/100 g
urine osmolality, lower than AVP + saline group ([5]; 900 nmol/kg s.c. on days 0 and 1): 58%
urine output, higher than AVP + saline group ([5]; 900 nmol/kg s.c. on days 0 and 1, average days 1 to 2, n = 9): 185%
plasma sodium concentration on day 2 ([5]; 900 nmol/kg s.c. on days 0 and 1, saline 100 ± 2): 110 ± 5 mmol/L
plasma sodium concentration on day 1 ([5]; 900 nmol/kg s.c., 24 h after first administration, saline 100 ± 2): 109 ± 5 mmol/L
body weight change from baseline versus saline ([5]; 900 nmol/kg s.c., AVP-treated animals): similar
water consumption (including water in diet), higher than AVP + saline group ([5]; 900 nmol/kg s.c., average days 1 to 2): 177%
food consumption ([5]; 900 nmol/kg s.c., hyponatremic rats): significant increase
increase in urine output 24 h after s.c. administration ([5]; 900 nmol/kg s.c., rats receiving 30 ng/h AVP and liquid diet): 11.7 ± 2.3 ml/24 h/100 g
increase in urine output 24 h after s.c. administration ([5]; 2400 nmol/kg s.c., rats receiving 30 ng/h AVP): 9.2 ± 4.1 ml/24 h/100 g

Reference: paper PMC7804859, “A metabolically stable apelin-17 analog decreases AVP-induced antidiuresis and improves hyponatremia” (Nature Communications, 2021)
